Data as given in ChEMBL document CHEMBL2028040, “Malaria Box”.

How the values were obtained:
Plasmodium falciparum [1] = experiment: MMV: Inhibition of Plasmodium falciparum 3D7 at 5uM compound concentration.; assay type: functional
Plasmodium falciparum [2] = experiment: MMV: Inhibition of Plasmodium falciparum 3D7 (EC50).; assay type: functional, organism-based
Trypanosoma cruzi = experiment: MMV: Inhibition of Trypanosoma cruzi (Tulahuen C4 LacZ) (Chagas in vitro).; assay type: functional, organism-based
[3] = test system: Trypanosoma brucei brucei; experiment: MMV: Inhibition of Trypanosoma brucei brucei (Squib 427) (HAT in vitro).; assay type: functional, organism-based
[4] = test system: Trypanosoma brucei rhodesiense; experiment: MMV: Inhibition of Trypanosoma brucei rhodesiense (STIB 900) (HAT in vitro).; assay type: functional, organism-based
Leishmania infantum = experiment: MMV: Inhibition of Leishmania infantum (MHOM/MA/BE/67) in vitro.; assay type: functional, organism-based
[5] = MMV: Cytotoxicity against human fibroblasts (MRC-5) cells.; details: MRC-5 cells (human fibroblasts)

SMILES | inhibition at 5 µM (Plasmodium falciparum [1]) | EC50 (Plasmodium falciparum [2]) | IC50 (Trypanosoma cruzi) | IC50 [3] | IC50 [4] | IC50 (Leishmania infantum) | IC50 [5]
CN1c2ccccc2N(C)C1c1ccc2c(c1)OCO2 | 60% | 0.994 µM | > 32 µM | > 32 µM | > 32 µM | > 32 µM | > 32 µM
COc1ccc(C(=O)C2CC2c2ccc(Cl)cc2)cc1 (stereo not given) | 94% | 1.06 µM | > 32 µM | > 32 µM | > 32 µM | > 32 µM | > 32 µM
COc1ccc(-c2nc3cc(Cc4ccc5[nH]c(-c6ccc(OC)cc6)nc5c4)ccc3[nH]2)cc1 | 98% | 0.176 µM | < 0.125 µM | 0.179 µM | < 0.125 µM | 4.06 µM | 4.76 µM
CCOC(=O)c1cnc2c(C)cc(C)cc2c1Nc1ccc(OC)c(OC)c1 | 96% | 0.232 µM | > 32 µM | > 32 µM | > 32 µM | > 32 µM | > 32 µM
COc1cc(CNCCc2ccc(Cl)cc2)cc(OC)c1O | 97% | 1.79 µM | > 32 µM | 15 µM | 12.1 µM | > 32 µM | > 32 µM
FC(F)(F)c1cccc(CNC2CCN(CCc3ccccc3)CC2)c1 | 96% | 0.685 µM | 15.7 µM | 2.73 µM | 1.31 µM | 16.6 µM | > 32 µM
CCOc1ccccc1CNC(=O)C1c2ccccc2C(=O)N(CC(C)C)C1c1cccs1 (stereo not given) | 97% | 1.32 µM | 14.9 µM | 16.1 µM | 16.1 µM | > 32 µM | > 32 µM
COc1ccc(/C=C2/SC(=Nc3ccccc3)NC2=O)cc1 | 71% | 0.551 µM | > 32 µM | > 32 µM | 16.3 µM | > 32 µM | 11.5 µM
O=C(NC1CCN(Cc2ccccc2)CC1)c1cc(-c2ccncc2)nc2ccc(Cl)cc12 | 92% | 1.02 µM | 4.59 µM | 4.03 µM | 3.51 µM | 16.2 µM | > 32 µM
O=C(NCc1ccco1)C1CCN(S(=O)(=O)c2ccc(Cl)cc2)CC1 | 94% | 0.891 µM | > 32 µM | > 32 µM | 28.9 µM | > 32 µM | > 32 µM
COCCNCC(O)Cn1c2ccc(Cl)cc2c2cc(Cl)ccc21 (stereo not given) |  | 1.01 µM | 3.89 µM | 0.711 µM | 0.357 µM | 2.97 µM | 4.81 µM
COc1ccc(Nc2cc(C)nc(NCc3ccccc3)n2)cc1 |  | 0.467 µM | 1.04 µM | 2.95 µM | 3.86 µM | 4.32 µM | 13.5 µM
CC1(c2ccccc2)Nc2ccccc2-c2nc3ccccc3n21 (stereo not given) |  | 1.73 µM | 19.1 µM | 17.1 µM | 10.3 µM | > 32 µM | > 32 µM
Cc1cc(C)cc(Nc2cc(C)nc3nc(C(F)(F)F)nn23)c1 |  | 0.0857 µM | > 32 µM | > 32 µM | > 32 µM | > 32 µM | > 32 µM
CN1CCN(c2ncnc3c2[nH]c2ccc(Cl)cc23)CC1 |  | 1.19 µM | 30.8 µM | 14.6 µM | 11 µM | 21.5 µM | > 32 µM
CN(N=O)C1=C(NC2CCCCC2)C(=O)c2ccccc2C1=O |  | 1.19 µM | 12.8 µM | 16.5 µM | 4.61 µM | > 32 µM | > 32 µM
COC(=O)c1ccc(Cl)c2c1C1C=CCC1C(c1cccc3ccccc13)N2 (stereo not given) |  | 0.939 µM | 13.5 µM | 16 µM | 11.9 µM | 17.3 µM | > 32 µM
O=C(NNc1cc(N2CCCC2)nc(N2CCCC2)n1)c1ccccc1 |  | 1.33 µM | 13.7 µM | > 32 µM | 16.5 µM | 25.4 µM | > 32 µM
CCOC(=O)c1cnc2ccc(CC)cc2c1O |  | 0.351 µM | > 32 µM | > 32 µM | > 32 µM | > 32 µM | > 32 µM
Cc1cc(Nc2ccc(Cl)cc2)n2nc(C(F)(F)F)nc2n1 |  | 0.212 µM | > 32 µM | > 32 µM | > 32 µM | > 32 µM | > 32 µM
Cc1sc(NC(=O)c2ccco2)c(C(c2cccnc2)N2CCC(Cc3ccccc3)CC2)c1C (stereo not given) |  | 1.02 µM | 1.36 µM | 3.94 µM | 3.97 µM | 16.2 µM | > 32 µM
COc1cc2c(cc1OC)C1=NNC(=O)C1=NC(C)(C)C2 |  | 1.04 µM | 3.59 µM | 12.9 µM | 6.64 µM | 4.03 µM | > 32 µM
COc1ccc(CCN2C(=O)c3[nH]nc(-c4cc(Cl)c(C)cc4O)c3C2c2ccccc2F)cc1 (stereo not given) |  | 0.916 µM | 12.9 µM | 4 µM | 3.56 µM | 12 µM | > 32 µM

SMILES | inhibition at 5 µM (Plasmodium falciparum [1]) | EC50 (Plasmodium falciparum [2]) | IC50 (Trypanosoma cruzi) | IC50 [3] | IC50 [4] | IC50 (Leishmania infantum) | IC50 [5]
CCOc1ccccc1CN1CCc2nc3cc(C(C)(C)C)nn3c(O)c2C1 |  | 1.01 µM | > 32 µM | 28.9 µM | > 32 µM | > 32 µM | > 32 µM
CN1CCN(c2nc(Nc3ccc(O)cc3)nc3ccccc23)CC1 |  | 1.43 µM | 11.1 µM | 4.69 µM | 3.28 µM | 13.6 µM | > 32 µM
COc1cccc(C2(C)Nc3ccccc3-c3nc4ccccc4n32)c1 (stereo not given) |  | 1.15 µM | 13.4 µM | 15 µM | 14.5 µM | > 32 µM | 26.4 µM
CCOC(=O)c1c(C)n(-c2ccccc2)c2ccc(OC(=O)c3cc(OC)c(OC)c(OC)c3)cc12 |  | 0.615 µM | 13.3 µM | 16.2 µM | 10.8 µM | > 32 µM | 26.4 µM
C[n+]1c2ccccc2nc2ccc(NCCO)cc21 |  | 0.296 µM | 16 µM | 14 µM | 16 µM | > 32 µM | > 32 µM
COc1cccc(Cn2c(Oc3ccccc3)nc3c2c(=O)n(C)c(=O)n3C)c1 |  | 1.39 µM | > 32 µM | > 32 µM | > 32 µM | > 32 µM | > 32 µM
Cc1ccc(Nc2nc(NCCO)c3ccccc3n2)cc1C |  | 0.428 µM | 2.99 µM | 8.22 µM | 3.83 µM | 2.52 µM | 11.4 µM
COc1cc(C(=O)Nc2nc3c(cc4c5c(cccc53)CC4)s2)cc(OC)c1OC |  | 0.898 µM | > 32 µM | > 32 µM | > 32 µM | 16.2 µM | > 32 µM
N#Cc1nc(Cc2cccc3ccccc23)oc1N1CCN(C(c2ccccc2)c2ccccc2)CC1 |  | 1.16 µM | > 32 µM | > 32 µM | 15.7 µM | 25.4 µM | > 32 µM
Cc1cc(N2CCN(C3CCCC3)CC2)n2c(nc3ccccc32)c1C#N |  | 0.683 µM | > 32 µM | > 32 µM | > 32 µM | > 32 µM | > 32 µM
Cc1sc(NC(=O)c2ccccc2)c(C(c2cccs2)N2CCN(c3ccccc3)CC2)c1C (stereo not given) |  | 1.18 µM | > 32 µM | 6.32 µM | 4 µM | 12.7 µM | > 32 µM
OC1=C2C(=Nc3ccccc3SC2c2ccccc2)c2ccccc21 (stereo not given) |  | 0.89 µM | 13.9 µM | 4.15 µM | 3.56 µM | 16.2 µM | 15.7 µM
COc1ccc(-c2cc3c(SCC(=O)Nc4cc(C(F)(F)F)ccc4Cl)nccn3n2)cc1 |  | 0.0899 µM | > 32 µM | > 32 µM | > 32 µM | 16.2 µM | > 32 µM
CCN(CC)CCNc1ncnc2c1[nH]c1ccc(Br)cc12 |  | 0.707 µM | 17.1 µM | 16.3 µM | 16 µM | 16 µM | > 32 µM
CCN1CCCC1CNc1[nH]cnc2c3cc(Cl)ccc3nc1-2 (stereo not given) |  | 0.218 µM | > 32 µM | > 32 µM | > 32 µM | 16.2 µM | > 32 µM
COc1ccc(C2c3ccc4ccccc4c3Oc3ncn(CCCN(C)C)c(=N)c32)cc1 (stereo not given) |  | 1.23 µM | 1.01 µM | 0.259 µM | 0.223 µM | 1.01 µM | 3.49 µM
COc1ccc(-c2nc(N3CCN(C(=O)C4CCCCC4)CC3)c3c4c(sc3n2)CCCC4)cc1 |  | 1.06 µM | 7.45 µM | 4.09 µM | 4.07 µM | 4.32 µM | > 32 µM
CCOc1cc(CNC(C)C(O)c2ccccc2)cc(Cl)c1OCC (stereo not given) |  | 1.24 µM | 25.4 µM | 11.5 µM | 8.67 µM | 16.6 µM | > 32 µM
COc1ccc(C2c3ccc4ccccc4c3Oc3ncn(CCCn4ccnc4)c(=N)c32)cc1OC (stereo not given) |  | 1.79 µM | 4.2 µM | 15.5 µM | 1.8 µM | 5.38 µM | 10.1 µM
CC(C)CNC(=O)c1c(N)n(CCc2ccccc2F)c2nc3ccccc3nc12 |  | 0.832 µM | > 32 µM | > 32 µM | > 32 µM | > 32 µM | > 32 µM
Cc1cc(Nc2ccc3ccccc3c2)n2ncnc2n1 |  | 0.242 µM | > 32 µM | > 32 µM | > 32 µM | > 32 µM | > 32 µM
COc1ccc(-c2c(C)nn3c(N)c(C#N)cnc23)cc1OC |  | 0.477 µM | > 32 µM | > 32 µM | > 32 µM | > 32 µM | 27.6 µM
